Laboratory results from PMC11287240 (RSC Advances, 2024).
Like-named read-outs stand apart in the source and are kept apart here.

Experiments:
[1] = biological target: EeAChE (Electrophorus electricus acetylcholinesterase) (Electrophorus electricus, UniProt O42275); test: AChE inhibition assay; assay type: biochemical, electric eel
[2] = biological target: hBACE 1 (Homo sapiens, UniProt P56817); test: BACE 1 FRET inhibition assay; assay type: biochemical; conditions: human BACE 1
[3] = read-out: EeAChE IC50 (μM) ± SD, mean ± SD, n = 3, AChE from electric eel, Ellman assay
[4] = read-out: hBACE 1 IC50 (μM) ± SD, mean ± SD, n = 3, FRET assay
[5] = hBACE 1 IC50 (μM) ± SD, mean ± SD, n = 3, FRET assay

hBACE 1, sequence (P56817 46-501): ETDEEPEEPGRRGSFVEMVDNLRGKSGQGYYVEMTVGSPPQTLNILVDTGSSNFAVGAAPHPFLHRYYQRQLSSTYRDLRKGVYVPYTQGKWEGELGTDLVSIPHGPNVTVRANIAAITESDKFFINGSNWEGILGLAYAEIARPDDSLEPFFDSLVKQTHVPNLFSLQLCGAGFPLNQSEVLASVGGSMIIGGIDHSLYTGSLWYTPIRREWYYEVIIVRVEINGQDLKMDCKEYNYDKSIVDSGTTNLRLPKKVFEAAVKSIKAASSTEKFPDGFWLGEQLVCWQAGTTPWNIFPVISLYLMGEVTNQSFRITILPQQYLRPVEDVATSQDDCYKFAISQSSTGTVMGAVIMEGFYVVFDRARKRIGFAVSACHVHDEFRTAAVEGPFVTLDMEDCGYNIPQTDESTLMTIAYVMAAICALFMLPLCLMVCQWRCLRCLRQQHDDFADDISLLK
EeAChE (Electrophorus electricus acetylcholinesterase), sequence (O42275 24-633): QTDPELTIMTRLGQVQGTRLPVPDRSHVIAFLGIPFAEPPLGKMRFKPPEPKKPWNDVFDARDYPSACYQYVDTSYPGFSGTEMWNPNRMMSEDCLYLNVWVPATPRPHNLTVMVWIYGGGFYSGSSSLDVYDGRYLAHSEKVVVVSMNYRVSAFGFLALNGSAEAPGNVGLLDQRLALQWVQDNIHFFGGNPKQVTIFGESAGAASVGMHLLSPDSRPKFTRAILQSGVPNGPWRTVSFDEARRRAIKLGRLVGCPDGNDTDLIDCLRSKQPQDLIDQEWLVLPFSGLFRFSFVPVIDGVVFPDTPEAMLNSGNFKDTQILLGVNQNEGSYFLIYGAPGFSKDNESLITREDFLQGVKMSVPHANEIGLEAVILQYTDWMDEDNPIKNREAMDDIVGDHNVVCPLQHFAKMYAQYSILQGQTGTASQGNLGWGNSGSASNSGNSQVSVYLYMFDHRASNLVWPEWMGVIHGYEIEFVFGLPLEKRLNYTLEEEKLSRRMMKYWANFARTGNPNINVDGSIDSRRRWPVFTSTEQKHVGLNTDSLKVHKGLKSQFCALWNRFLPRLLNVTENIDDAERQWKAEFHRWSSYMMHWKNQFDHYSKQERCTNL

Structure (SMILES): [H]/N=C(/N)NN=C(/C=C/c1ccc(F)cc1F)c1cn(Cc2ccccc2)c2ccccc12 [Compound 1m, (Z)-2-((E)-1-(1-Benzyl-1H-indol-3-yl)-3-(2,4-difluorophenyl)allylidene)hydrazine-1-carboximidamide]
- EeAChE PIC50 ([1]; AChE from electric eel): 3.83 µM
- IC50 [1, 3]: 148 ± 3.11 µM
- hBACE 1 PIC50 [2]: 4.89 µM
- IC50 [2, 4]: 12.8 ± 0.5 µM

Structure (SMILES): [H]/N=C(/N)NN=C(/C=C/c1ccccc1[N+](=O)[O-])c1cn(Cc2ccccc2)c2ccccc12 [Compound 1n, (Z)-2-((E)-1-(1-Benzyl-1H-indol-3-yl)-3-(2-nitrophenyl)allylidene)hydrazine-1-carboximidamide]
- IC50 [1]: 216 ± 3.61 µM
- IC50 [2, 5]: 12.3 ± 0.6 µM
- IC50 ([2]; hBACE 1 PIC50 (μM)): 12.3 µM

Structure (SMILES): [H]/N=C(/N)NN=C(/C=C/c1cccc(OCc2ccccc2)c1)c1cn(Cc2ccccc2)c2ccccc12 [Compound 1o, (Z)-2-((E)-1-(1-Benzyl-1H-indol-3-yl)-3-(3-(benzyloxy)phenyl)allylidene)hydrazine-1-carboximidamide]
- IC50 [1]: 126.6 ± 0.99 µM
- IC50 [2, 5]: 12.8 ± 0.42 µM
- IC50 ([2]; hBACE 1 PIC50 (μM)): 12.9 µM

Structure (SMILES): [H]/N=C(/N)NN=C(/C=C/c1cccc(OC)c1OC)c1cn(Cc2ccccc2)c2ccccc12 [Compound 1p, (Z)-2-((E)-1-(1-Benzyl-1H-indol-3-yl)-3-(2,3-dimethoxyphenyl)allylidene)hydrazine-1-carboximidamide]
- IC50 [1]: 48.6 ± 1.51 µM
- IC50 [2, 5]: 134 ± 1.42 µM
- IC50 ([2]; hBACE 1 PIC50 (μM)): 135 µM

Structure (SMILES): [H]/N=C(/N)NN=C(/C=C/c1ccc(Cl)cc1)c1cn(Cc2ccccc2)c2ccccc12 [Compound 1q, (Z)-2-((E)-1-(1-Benzyl-1H-indol-3-yl)-3-(4-chlorophenyl)allylidene)hydrazine-1-carboximidamide]
- IC50 [1]: 82.6 ± 1.92 µM
- IC50 [2, 5]: 16.5 ± 0.39 µM
- IC50 ([2]; hBACE 1 PIC50 (μM)): 16.6 µM

Structure (SMILES): [H]/N=C(/N)NN=C(/C=C/c1ccccc1C)c1cn(Cc2ccccc2)c2ccccc12 [Compound 1r, (Z)-2-((E)-1-(1-Benzyl-1H-indol-3-yl)-3-(o-tolyl)allylidene)hydrazine-1-carboximidamide]
- IC50 [1]: 46.8 ± 1.83 µM
- IC50 [2, 5]: 206 ± 3.75 µM
- IC50 ([2]; hBACE 1 PIC50 (μM)): 204 µM

Structure (SMILES): [H]/N=C(/N)NN=C(/C=C/c1ccccc1)c1cn(Cc2ccc(F)cc2F)c2ccccc12 [Compound 2a, (Z)-2-((E)-1-(1-(2,4-Difluorobenzyl)-1H-indol-3-yl)-3-phenylallylidene)hydrazine-1-carboximidamide]
- IC50 [1]: 46.4 ± 1.63 µM
- IC50 [2, 5]: 200.1 ± 1.98 µM
- IC50 ([2]; hBACE 1 PIC50 (μM)): 200 µM

Structure (SMILES): [H]/N=C(/N)NN=C(/C=C/c1ccccc1)c1cn(Cc2ccc(C(F)(F)F)cc2)c2ccccc12 [Compound 2b, (Z)-2-((E)-3-Phenyl-1-(1-(4-(trifluoromethyl)benzyl)-1H-indol-3-yl)allylidene)hydrazine-1-carboximidamide]
- IC50 [1]: 56 ± 2.44 µM
- IC50 [2, 5]: 102 ± 1.06 µM
- IC50 ([2]; hBACE 1 PIC50 (μM)): 102 µM

Structure (SMILES): [H]/N=C(/N)NN=C(/C=C/c1ccccc1)c1cn(Cc2cc(C(F)(F)F)cc(C(F)(F)F)c2)c2ccccc12 [Compound 2c, (Z)-2-((E)-1-(1-(3,5-Bis(trifluoromethyl)benzyl)-1H-indol-3-yl)-3-phenylallylidene)hydrazine-1-carboximidamide]
- IC50 [1]: 56.6 ± 0.98 µM
- IC50 [2, 5]: 70 ± 0.87 µM
- IC50 ([2]; hBACE 1 PIC50 (μM)): 70.8 µM

Structure (SMILES): [H]/N=C(/N)NN=C(/C=C/c1ccccc1)c1cn(Cc2ccc(F)cc2C(F)(F)F)c2ccccc12 [Compound 2d, (Z)-2-((E)-1-(1-(4-Fluoro-2-(trifluoromethyl)benzyl)-1H-indol-3-yl)-3-phenylallylidene)hydrazine-1-carboximidamide]
- IC50 [1]: 169 ± 1.91 µM
- IC50 [2, 5]: 140.9 ± 1.06 µM
- IC50 ([2]; hBACE 1 PIC50 (μM)): 141 µM

Structure (SMILES): [H]/N=C(/N)NN=C(/C=C/c1ccccc1)c1cn(Cc2ccccc2C#N)c2ccccc12 [Compound 2e, (Z)-2-((E)-1-(1-(2-Cyanobenzyl)-1H-indol-3-yl)-3-phenylallylidene)hydrazine-1-carboximidamide]
- IC50 [1]: 44.02 ± 0.19 µM
- IC50 [2, 5]: 197 ± 2.42 µM
- IC50 ([2]; hBACE 1 PIC50 (μM)): 195 µM

Structure (SMILES): [H]/N=C(/N)NN=C(/C=C/c1ccccc1)c1cn(Cc2ccc(Cl)cc2)c2ccccc12 [Compound 2f, (Z)-2-((E)-1-(1-(4-Chlorobenzyl)-1H-indol-3-yl)-3-phenylallylidene)hydrazine-1-carboximidamide]
- IC50 [1]: 42.8 ± 2.79 µM
- IC50 [2, 5]: 213 ± 2.26 µM
- IC50 ([2]; hBACE 1 PIC50 (μM)): 214 µM

Structure (SMILES): [H]/N=C(/N)NN=C(/C=C/c1ccccc1)c1cn(Cc2cc(OC)cc(OC)c2)c2ccccc12 [Compound 2g, (Z)-2-((E)-1-(1-(3,5-Dimethoxybenzyl)-1H-indol-3-yl)-3-phenylallylidene)hydrazine-1-carboximidamide]
- IC50 [1]: 55.6 ± 0.72 µM
- IC50 [2, 5]: 83.4 ± 1.93 µM
- IC50 ([2]; hBACE 1 PIC50 (μM)): 83.2 µM

Structure (SMILES): [H]/N=C(/N)NN=C(/C=C/c1ccccc1)c1cn(Cc2ccccc2F)c2ccccc12 [Compound 2h, (Z)-2-((E)-1-(1-(2-Fluorobenzyl)-1H-indol-3-yl)-3-phenylallylidene)hydrazine-1-carboximidamide]
- IC50 [1]: 62.86 ± 0.62 µM
- IC50 [2, 5]: 143.2 ± 0.21 µM
- IC50 ([2]; hBACE 1 PIC50 (μM)): 145 µM

Structure (SMILES): [H]/N=C(/N)NN=C(/C=C/c1ccccc1)c1cn(Cc2ccc(Br)cc2F)c2ccccc12 [Compound 2i, (Z)-2-((E)-1-(1-(4-Bromo-2-fluorobenzyl)-1H-indol-3-yl)-3-phenylallylidene)hydrazine-1-carboximidamide]
- IC50 [1]: 42.6 ± 1.58 µM
- IC50 [2, 5]: 185.95 ± 0.07 µM
- IC50 ([2]; hBACE 1 PIC50 (μM)): 186 µM

Structure (SMILES): [H]/N=C(/N)NN=C(/C=C/c1ccccc1)c1cn(Cc2cccc(C#N)c2)c2ccccc12 [Compound 2j, (Z)-2-((E)-1-(1-(3-Cyanobenzyl)-1H-indol-3-yl)-3-phenylallylidene)hydrazine-1-carboximidamide]
- IC50 [1]: 75.91 ± 0.32 µM
- IC50 [2, 5]: 178.2 ± 0.92 µM
- IC50 ([2]; hBACE 1 PIC50 (μM)): 178 µM

Structure (SMILES): [H]/N=C(/N)NN=C(/C=C/c1ccc(C(F)(F)F)cc1)c1cn(Cc2ccc(C(F)(F)F)cc2)c2ccccc12 [Compound 3a, (Z)-2-((E)-1-(1-(4-(Trifluoromethyl)benzyl)-1H-indol-3-yl)-3-(4-(trifluoromethyl)phenyl)allylidene)hydrazine-1-carboximidamide]
- EeAChE PIC50 ([1]; AChE from electric eel): 4.42 µM
- IC50 [1, 3]: 38.4 ± 3.46 µM
- hBACE 1 PIC50 [2]: 3.65 µM
- IC50 [2, 4]: 222.3 ± 0.49 µM

Structure (SMILES): [H]/N=C(/N)NN=C(/C=C/c1ccc(OC)c(OC)c1)c1cn(Cc2cc(OC)cc(OC)c2)c2ccccc12 [Compound 3b, (Z)-2-((E)-1-(1-(3,5-Dimethoxybenzyl)-1H-indol-3-yl)-3-(3,4-dimethoxyphenyl)allylidene)hydrazine-1-carboximidamide]
- IC50 [1]: 22 ± 0.65 µM
- IC50 [2, 5]: 198 ± 3.18 µM
- IC50 ([2]; hBACE 1 PIC50 (μM)): 200 µM

Structure (SMILES): [H]/N=C(/N)NN=C(/C=C/c1ccc(C(C)(C)C)cc1)c1cn(Cc2ccc(-c3ccccc3)cc2)c2ccccc12 [Compound 3c, (Z)-2-((E)-1-(1-([1,1′-Biphenyl]-4-ylmethyl)-1H-indol-3-yl)-3-(4-(tert-butyl)phenyl)allylidene)hydrazine-1-carboximidamide]
- IC50 [1]: 16.6 ± 1.04 µM
- IC50 [2, 5]: 201 ± 3.82 µM
- IC50 ([2]; hBACE 1 PIC50 (μM)): 200 µM

Structure (SMILES): [H]/N=C(/N)NN=C(/C=C/c1ccc(F)c(F)c1)c1cn(Cc2ccc(C(C)(C)C)cc2)c2ccccc12 [Compound 3d, (Z)-2-((E)-1-(1-(4-(tert-Butyl)benzyl)-1H-indol-3-yl)-3-(3,4-difluorophenyl)allylidene)hydrazine-1-carboximidamide]
- EeAChE PIC50 ([1]; AChE from electric eel): 3.71 µM
- IC50 [1, 3]: 195.9 ± 1.73 µM
- hBACE 1 PIC50 [2]: 4.11 µM
- IC50 [2, 4]: 76.9 ± 2.38 µM
